According to ChEMBL document CHEMBL1201862, “PubChem BioAssay data set” (2004):
Activity calls are given as the source filed them.

How the values were obtained:
cells = type: functional
[1] = A Cell Based Secondary Assay To Explore Cytotoxicity of Compounds that Sensitize Mycobacterium Tuberculosis to Beta-Lactam Antibiotics.; type: functional
[2] = Vero E6 cell cytotoxicity, dose response, cytotoxicity control for non-replicating M. tuberculosis project, secondary assay (AID 492998); type: functional, VeroE6; details: Vero C1008
Streptococcus = assay: GAS UMAA2166 growth inhibition – luminescence, BacTiterGlo, counter-screen for streptokinase expression inhibitor project, dose response (AID 1915); type: functional, organism-based;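 further: potency for reduction of bacterial viability or growth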
HEK293 = assay: cells; details: Homo sapiens;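 further: cells exposed to compound for 14 hours overnight before viability readout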
[3] = molecular target: T1, Nucleotide-binding oligomerization domain-containing protein 1 (Homo sapiens, UniProt Q9Y239); assay: blockers of NOD1 pathway activity – revised, SAR follow-up (AID 2333); type: functional
T1 sequence (Q9Y239 whole entry): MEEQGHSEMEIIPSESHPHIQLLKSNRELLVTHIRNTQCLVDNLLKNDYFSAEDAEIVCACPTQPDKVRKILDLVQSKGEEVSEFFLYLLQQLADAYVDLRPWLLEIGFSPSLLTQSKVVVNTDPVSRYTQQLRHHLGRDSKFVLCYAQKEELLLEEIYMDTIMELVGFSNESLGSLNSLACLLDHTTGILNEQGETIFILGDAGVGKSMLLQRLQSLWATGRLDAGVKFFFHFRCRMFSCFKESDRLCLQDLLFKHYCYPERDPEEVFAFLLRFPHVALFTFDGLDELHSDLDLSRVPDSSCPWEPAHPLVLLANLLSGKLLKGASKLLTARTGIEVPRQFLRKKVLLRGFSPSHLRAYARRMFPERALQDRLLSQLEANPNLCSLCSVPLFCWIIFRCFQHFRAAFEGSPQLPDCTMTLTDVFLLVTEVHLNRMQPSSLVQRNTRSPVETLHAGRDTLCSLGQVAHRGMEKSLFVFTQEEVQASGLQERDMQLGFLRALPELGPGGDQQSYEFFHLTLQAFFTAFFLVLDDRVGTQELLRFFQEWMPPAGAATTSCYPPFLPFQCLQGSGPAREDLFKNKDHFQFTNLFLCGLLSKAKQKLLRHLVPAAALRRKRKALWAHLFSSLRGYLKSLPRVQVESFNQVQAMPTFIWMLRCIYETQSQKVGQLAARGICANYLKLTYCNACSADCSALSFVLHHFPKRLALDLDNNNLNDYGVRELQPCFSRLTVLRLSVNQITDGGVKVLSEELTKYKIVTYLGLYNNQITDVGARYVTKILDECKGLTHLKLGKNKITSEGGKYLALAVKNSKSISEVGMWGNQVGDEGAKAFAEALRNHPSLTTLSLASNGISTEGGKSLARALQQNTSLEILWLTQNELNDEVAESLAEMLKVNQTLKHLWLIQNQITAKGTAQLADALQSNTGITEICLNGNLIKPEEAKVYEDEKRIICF

[4] = THP-1 cell cytotoxicity, dose response, cytotoxicity control for non-replicating M. tuberculosis project (AID 489025); type: functional
[5] = system: Streptococcus sp. 'group A'; assay: Streptococcus pyogenes SK(-)GAS viability under kanamycin – luminescence, BacTiterGlo, confirmation, counter-screen for streptokinase expression inhibitor project, dose response (AID 1900); type: functional, organism-based
[6] = molecular target: T2, Microphthalmia-associated transcription factor (Homo sapiens, UniProt O75030); assay: reducers of TRPM1 reporter luminescence, concentration series – cell-based, SK-MEL-5, cherry-picked, set 3, MITF inhibitor project, dose response (AID 493073); type: functional;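 further: SK-MEL-5 melanoma cells with luciferase driven by the MITF target TRPM1 promoter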
T2 sequence (O75030 whole entry): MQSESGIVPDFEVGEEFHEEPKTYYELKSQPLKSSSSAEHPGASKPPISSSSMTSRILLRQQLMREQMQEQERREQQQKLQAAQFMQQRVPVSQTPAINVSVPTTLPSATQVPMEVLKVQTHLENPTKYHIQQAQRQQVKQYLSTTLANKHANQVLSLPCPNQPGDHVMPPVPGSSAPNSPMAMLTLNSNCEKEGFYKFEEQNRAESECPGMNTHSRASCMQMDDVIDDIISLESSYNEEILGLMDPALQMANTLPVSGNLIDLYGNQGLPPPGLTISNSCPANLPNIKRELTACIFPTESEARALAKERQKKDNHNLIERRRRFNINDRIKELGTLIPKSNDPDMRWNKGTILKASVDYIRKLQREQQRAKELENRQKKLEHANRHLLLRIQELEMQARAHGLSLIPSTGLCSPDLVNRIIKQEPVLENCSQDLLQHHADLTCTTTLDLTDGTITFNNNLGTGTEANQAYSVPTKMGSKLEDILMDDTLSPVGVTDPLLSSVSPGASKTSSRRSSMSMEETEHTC

Tumor necrosis factor = Tumor necrosis factor (Homo sapiens, UniProt P01375); assay: analog potency on TNFa NF-kB signaling – cell-based, revised, SAR follow-up (AID 2337); type: functional
Chain of Tumor necrosis factor (P01375 whole entry): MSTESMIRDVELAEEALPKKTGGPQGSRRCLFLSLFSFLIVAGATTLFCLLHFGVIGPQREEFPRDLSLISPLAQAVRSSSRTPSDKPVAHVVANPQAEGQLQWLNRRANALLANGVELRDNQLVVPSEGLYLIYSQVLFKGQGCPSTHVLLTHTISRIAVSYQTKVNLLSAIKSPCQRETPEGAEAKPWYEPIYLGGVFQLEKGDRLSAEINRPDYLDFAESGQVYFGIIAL

[7] = HepG2 cell cytotoxicity, dose response, cytotoxicity control for non-replicating M. tuberculosis project (AID 489018); type: functional; details: Mycobacterium tuberculosis
[8] = reduction of Shn3 3'UTR-driven luciferase in osteoblasts – cell-based, Clone20 osteoblasts, firefly luciferase, cherry-picked, dose response (AID 624132); type: functional;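 further: firefly luciferase luminescence from reporter carrying the Shn3 3'UTR in osteoblasts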
[9] = non-specific 3'UTR reporter inhibition in Clone20-Shn3RL – cell-based, Renilla luciferase, cherry-picked, counter-screen for Shn3 inhibitor project, dose response (AID 624133); type: functional
[10] = loss of viability in HepG2 cells – cell-based, CellTiter-Glo, cherry-picked, cytotoxicity control for Shn3 inhibitor project, dose response (AID 624134); type: functional
[11] = viability of HCT116 lacking mutant beta-catenin – cell-based, human colon tumor, dose response (AID 1045); type: functional;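 further: HCT116 colon tumor cells with beta catenin knocked out; cells exposed to compound for 60 hours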
[12] = molecular target: T3, Calpain-2 catalytic subunit (Sus scrofa, UniProt P43367); assay: m-calpain protease blockers, concentration series – biochemical, fluorogenic peptide substrate, dose response (AID 1420); type: functional
T3 sequence (P43367 whole entry): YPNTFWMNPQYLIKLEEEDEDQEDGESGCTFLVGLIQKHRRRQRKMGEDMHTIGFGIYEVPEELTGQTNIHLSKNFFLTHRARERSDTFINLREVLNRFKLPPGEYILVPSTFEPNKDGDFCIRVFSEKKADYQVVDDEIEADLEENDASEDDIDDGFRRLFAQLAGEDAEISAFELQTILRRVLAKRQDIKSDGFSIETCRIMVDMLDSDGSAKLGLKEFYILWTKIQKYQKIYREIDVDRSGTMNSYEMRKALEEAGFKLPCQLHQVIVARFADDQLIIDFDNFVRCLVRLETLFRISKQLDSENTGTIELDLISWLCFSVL

[13] = viability of PTEN-deleted HCT116 cells – cell-based, HCT116 PTEN knockout, dose response (AID 1047); type: functional;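 further: HCT116 colon tumor cells with PTEN knocked out; cells exposed to compound for 60 hours before readout; potency for loss of cell viability measured by luminescence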
SUMO-activating enzyme = SUMO-activating enzyme (Homo sapiens, UniProt Q9UBT2); assay: blockers of UBC9-mediated SUMO conjugation – biochemical, AlphaScreen, SUMOylation inhibitor project, confirmation (AID 2018); type: functional
Chain of SUMO-activating enzyme (Q9UBE0 whole entry): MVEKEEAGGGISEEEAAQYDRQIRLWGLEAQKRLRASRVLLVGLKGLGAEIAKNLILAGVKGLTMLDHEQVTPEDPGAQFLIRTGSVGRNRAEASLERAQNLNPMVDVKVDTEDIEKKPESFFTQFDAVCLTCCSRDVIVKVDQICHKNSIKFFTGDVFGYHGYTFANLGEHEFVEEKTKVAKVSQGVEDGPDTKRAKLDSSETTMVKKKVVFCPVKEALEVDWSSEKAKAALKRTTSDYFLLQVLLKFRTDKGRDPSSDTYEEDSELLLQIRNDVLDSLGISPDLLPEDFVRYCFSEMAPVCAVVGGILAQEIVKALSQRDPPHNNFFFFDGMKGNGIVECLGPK
Chain of SUMO-activating enzyme (Q9UBT2 whole entry): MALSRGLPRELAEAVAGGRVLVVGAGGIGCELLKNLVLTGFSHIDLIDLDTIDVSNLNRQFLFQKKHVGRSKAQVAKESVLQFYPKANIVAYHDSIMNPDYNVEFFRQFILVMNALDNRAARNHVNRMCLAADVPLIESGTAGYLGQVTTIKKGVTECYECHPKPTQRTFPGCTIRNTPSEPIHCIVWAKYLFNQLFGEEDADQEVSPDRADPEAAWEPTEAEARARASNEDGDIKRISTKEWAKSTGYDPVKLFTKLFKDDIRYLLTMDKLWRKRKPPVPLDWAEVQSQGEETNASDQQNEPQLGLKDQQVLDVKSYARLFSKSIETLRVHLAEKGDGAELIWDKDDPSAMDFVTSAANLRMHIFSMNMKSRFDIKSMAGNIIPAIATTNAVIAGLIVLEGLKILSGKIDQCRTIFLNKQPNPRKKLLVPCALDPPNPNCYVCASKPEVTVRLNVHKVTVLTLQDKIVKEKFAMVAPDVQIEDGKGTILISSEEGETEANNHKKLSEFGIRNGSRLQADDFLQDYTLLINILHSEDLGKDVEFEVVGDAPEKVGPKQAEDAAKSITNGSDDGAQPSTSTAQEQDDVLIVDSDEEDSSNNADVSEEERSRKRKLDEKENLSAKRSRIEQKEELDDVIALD

Phosphomannomutase 2 = Phosphomannomutase 2 (Homo sapiens, UniProt O15305); assay: Counter screen SAR assay for PMM2 inhibitors via a fluorescence intensity assay. [Related pubchem assays (depositor defined):AID1545, AID1574]
Chain of Phosphomannomutase 2 (O15305 whole entry): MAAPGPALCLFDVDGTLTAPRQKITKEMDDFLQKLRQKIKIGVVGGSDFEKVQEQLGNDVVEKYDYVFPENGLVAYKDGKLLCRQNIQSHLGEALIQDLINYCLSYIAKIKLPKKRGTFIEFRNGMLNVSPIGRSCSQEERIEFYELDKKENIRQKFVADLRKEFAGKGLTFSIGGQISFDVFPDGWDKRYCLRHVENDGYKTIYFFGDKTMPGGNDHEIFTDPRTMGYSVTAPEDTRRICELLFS

[14] = molecular target: T4, Mannose-6-phosphate isomerase (Homo sapiens, UniProt P34949); assay: phosphomannose isomerase inhibition – biochemical, fluorescence intensity, confirmation (AID 1535)
T4 sequence (P34949 whole entry): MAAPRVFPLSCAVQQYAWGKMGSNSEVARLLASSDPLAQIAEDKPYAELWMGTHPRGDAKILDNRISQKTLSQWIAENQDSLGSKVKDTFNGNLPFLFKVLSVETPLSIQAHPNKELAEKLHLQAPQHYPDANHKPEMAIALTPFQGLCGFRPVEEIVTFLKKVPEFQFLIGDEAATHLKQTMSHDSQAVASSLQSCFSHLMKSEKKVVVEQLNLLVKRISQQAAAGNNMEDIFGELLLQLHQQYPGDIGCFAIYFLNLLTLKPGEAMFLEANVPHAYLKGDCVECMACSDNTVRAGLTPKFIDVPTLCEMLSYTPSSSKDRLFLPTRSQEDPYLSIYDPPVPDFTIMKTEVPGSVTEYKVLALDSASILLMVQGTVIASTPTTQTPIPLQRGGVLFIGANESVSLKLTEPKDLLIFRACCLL

Row | Structure (SMILES) | IC50 (cells) | CC50 [1] | CC50 [2] | EC50 (Streptococcus) | IC50 (HEK293) | IC50 [3] | CC50 [4] | EC50 [5] | AC50 [6] | IC50 (Tumor necrosis factor) | CC50 [7] | AC50 [8] | AC50 [9] | AC50 [10] | EC50 [11] | IC50 [12] | EC50 [13] | IC50 (SUMO-activating enzyme) | IC50 (Phosphomannomutase 2) | IC50 [14]
1 | CCCCCn1c(=O)c(C(=O)Nc2cnccn2)c(O)c2ccccc21 | 3.04 µM (active) | 2.4 µM (active) | 4.02 µM (active) | 5.32 µM (active) | > 20 µM (inactive) | 11.3 µM (active) | 5.17 µM (active) | 3.24 µM (active) | 5.93 µM (active) | > 20 µM (inactive) | 13.5 µM (active) | 1.54 µM (active) | 3.1 µM (active) | > 70 µM (inactive) |  |  |  |  |  | 
2 | O=C(Nc1nnc(-c2ccccc2SCc2ccccc2F)s1)Nc1ccccc1F |  | 29.5 µM (active) |  |  |  |  |  |  |  |  |  |  |  |  | 5.32 µM (active) | > 50 µM (not active) | 5.89 µM (active) | 41.1 µM (active) |  | 
3 | Cc1cc2n(n1)SC(Nc1ccccc1)N2 (stereo unspecified) |  |  |  |  |  |  |  |  |  |  |  |  |  |  |  |  |  |  | > 100 µM (inactive) | > 50 µM (inactive)
